According to patent US11389456B2, “Compounds and methods for treating oxalate-related diseases” (OxaluRx, Inc., priority 2018, dated 2022):
Converted amounts (≈) assume the structure as drawn. Where two headings read alike, the source gives them in different places.

Tests used:
[1] = system: CD1 mice administered 1% ethylene glycol; test: Mouse ethylene glycol model of hyperoxaluria, urinary oxalate; format: in vivo; conditions: mice, once-daily oral gavage, 100 mg/kg
Method: Mouse Models of Hyperoxaluria for Determining In Vivo Efficacy of hGOX Inhibitors
Male CD1 mice, 6-8 weeks of age (Charles River Labs, Wilmington, Mass.) were administered 1% ethylene glycol ad libitum their drinking water for 14 days. The mice were housed in individual cages, fed ad libitum and 24-h urine collections were initiated on days 1, 5, 9 and 14 using a 15-rack metabolic cage system equipped with a CCS2000 chiller system (Hatteras Instruments, Cary, N.C.) to maintain the samples at 4° C. during collection. Hydrochloric acid (100 μL of 6N) added to the collection vials to acidify the samples and prevent degradation of oxalate before evaluation.
Urine samples were maintained at 4° C. and urinary oxalate concentrations were determined within 24 hours of sample collection using a Trinity Biotech oxalate assay kit (Catalog #591-D). The assay was an enzymatic method based on the oxidation of oxalate by oxalate oxidase followed by measurement of hydrogen peroxide (H2O2) produced during the peroxidase-catalyzed reaction. Briefly, a 1-mL aliquot of each sample was diluted with an equal volume of assay diluent to bring the pH to between 5.0 and 7.0, then placed into purifier tubes (provided in the kit) and mixed for 5 min. The tubes were centrifuged for 5 min at 2000 rpm (1500×g) and the supernatants collected for the oxalate assay. The procedure was specific for oxalate with no special equipment and was easily adaptable for clinical automated analyzers. Each assay included a standard curve prepared with a standardized oxalate control sample (included in the kit) and internal assay control samples for both a normal (0.2-0.3 mmol/L) and elevated (0.86-1.21 mmol/L) level of oxalate.
To evaluate in vivo efficacy, mice were dosed by once-daily oral gavage of compound I-002 in an appropriate vehicle (e.g., phosphate-buffered saline, pH 7.4) at a dosage of 100 mg/kg. […]
The effect of example I-001 in the ethylene glycol model using CD-1 mice was evaluated by twice-daily, oral gavage dosing at 50 mg/kg for 6 days (days 5-11). […]

[2] = biological target: recombinant full-length human hydroxyacid oxidase 1 (HAO1), the equivalent of hGOX (Homo sapiens (Human), UniProt Q9UJM8); test: In-vitro human glycolate oxidase (hGOX) assay (Amplex red/HRP fluorescence); format: biochemical
Method: Biological Activity Assay: In-Vitro Human Glycolate Oxidase (hGOX) Assay
The in-vitro glycolate oxidase assay was performed using recombinant full-length human hydroxyacid oxidase 1 (HAO1), the equivalent of hGOX. […] Purified HAO1 was dissolved in assay buffer consisting of 10 mM NaCl, 110 mM KCl, 2 mM MgCl2, 50 mM HEPES (pH 7.4) and 0.01% Triton™ X-100.

[3] = biological target: glycolate oxidase (GOX) in HepaRG-CAR cells (Homo sapiens (Human), UniProt Q9UJM8); test: HepaRG-CAR cell-based assay for quantitation of glycolate oxidase inhibition (cellular glycolate flux, GC-MS)
[4] = Solubility in phosphate buffered saline (PBS), pH 7.4; format: physicochemical; conditions: phosphate buffer (PBS), aqueous buffer, kinetic from dmso stock; phosphate buffered saline pH 7.4, 1% DMSO, 1 hour shaking at room temperature
How it was run: (§1)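 DMSO stock (10 mM) diluted into 100 mM phosphate buffer pH 7.4, or into deionized distilled water for the aqueous assay, at 1% final DMSO and shaken 1 h at room temperature. After centrifugation, supernatants quantified by LC-MS/MS against a calibration curve with internal standard.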

[5] = Solubility in aqueous solution (deionized, distilled water); format: physicochemical; conditions: kinetic from dmso stock, 1% DMSO, read-out: Aqueous Solubility H2O
How it was run: as §1

[6] = Metabolic stability in human liver microsomal preparation; format: in vitro ADME; conditions: pH 7.4, human liver microsomes, NADPH, 37° C.; for half-life at 1 μM: 0-45 min, read-out: Metabolic Stability t1/2
How it was run: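 Compound at 1.5 μM with 0.75 mg/mL human liver microsomes (concentrations before NADPH addition) in 0.1 M potassium phosphate, 1 mM EDTA, pH 7.4 was preincubated 5 min at 37 °C, then started with NADPH. Samples at 0, 5, 15, 30 and 45 min were quenched with acetonitrile/internal standard and analysed by LC/MS.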

[7] = Stability in human plasma; format: in vitro ADME; conditions: read-out: Plasma Stability T1/2
How it was run: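 Pooled human plasma (pH 7.4-8) at 37° C, test compound spiked from a 0.02 mM solution in phosphate buffer with 0.5% BSA. Samples taken at 0, 5, 15, 30, 45 and 60 min, quenched with acetonitrile containing internal standard, and remaining compound measured by LC/MS.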

[8] = Protein binding (plasma equilibrium dialysis); format: in vitro ADME; conditions: 5 hours at 37° C.; for fraction unbound at 5 h, 1 μM: read-out: Protein Binding Fraction Bound (converted)
How it was run: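 Compound spiked into plasma at 1 μM final (0.2% DMSO) and dialysed against phosphate buffer for 5 hours at 37 °C with shaking. Donor and receiver samples, matrix-matched and acetonitrile-quenched with internal standard, quantified by LC/MS/MS alongside 0-hour plasma samples.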

[9] = HepaRG-CAR cells, 500 μM glycolate, 48 hours incubation, read-out: IC50

recombinant full-length human hydroxyacid oxidase 1 (HAO1), the equivalent of hGOX, sequence (Q9UJM8 whole entry): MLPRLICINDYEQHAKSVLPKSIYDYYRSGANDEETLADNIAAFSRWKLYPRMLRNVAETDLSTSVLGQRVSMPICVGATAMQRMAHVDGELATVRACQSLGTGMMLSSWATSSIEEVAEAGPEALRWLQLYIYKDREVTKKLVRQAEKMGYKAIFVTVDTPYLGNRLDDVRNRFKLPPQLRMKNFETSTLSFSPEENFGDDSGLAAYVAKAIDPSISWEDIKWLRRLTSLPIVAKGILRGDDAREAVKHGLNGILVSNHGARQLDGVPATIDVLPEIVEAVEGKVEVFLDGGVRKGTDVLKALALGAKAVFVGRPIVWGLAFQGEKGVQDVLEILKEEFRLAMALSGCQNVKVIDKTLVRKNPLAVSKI
glycolate oxidase (GOX) in HepaRG-CAR cells, sequence (Q9UJM8 whole entry): as above

IC50 [2] [nM] | IC50 [3, 9] [nM] | solubility at 1 h [4] [µM] | solubility at 1 h [5] [µM] | CLint scaled at 1 μM [6] [mL/min/kg] | half-life at 1 μM [6] [h] | half-life at 2 μM [7] [h] | recovery at 5 h, 1 μM [8] [%] | fraction unbound at 5 h, 1 μM [8] | IC50 [3] [nM] | Structure (SMILES) | reduction in urinary oxalate [1]
 |  |  |  |  |  |  |  |  |  | CCOC(=O)c1nn[nH]c1Sc1ccc(Cl)cc1 [Example I-002, Ethyl 5-((4-chlorophenyl)thio)-1H-1,2,3-triazole-4-carboxylate] | statistically significant reduction
18 | 2000 | 93.1 (≈ 26.3 µg/mL) | 96.1 (≈ 27.1 µg/mL) | 0.45 | 64.3 | 1.33 | 105 | 0.221 |  | O=C(O)c1nn[nH]c1Oc1cccc(-c2cccnc2)c1 [Example I-259, 5-(3-(Pyridin-3-yl)phenoxy)-1H-1,2,3-triazole-4-carboxylic acid] | 
17 | 2500 | 114 (≈ 34.1 µg/mL) | 106 (≈ 31.7 µg/mL) | 3.82 | 7.58 | 2.51 | 94.4 |  |  | O=C(O)c1nn[nH]c1Oc1cccc(-c2ccccc2F)c1 [Example I-254, 5-((2′-Fluoro-[1,1′-biphenyl]-3-yl)oxy)-1H-1,2,3-triazole-4-carboxylic acid] | 
5 | > 10000 | 93.7 (≈ 33.7 µg/mL) | 29.1 (≈ 10.5 µg/mL) | < 0.15 | > 83.3 | 1.85 | 98.5 |  |  | O=C(O)c1nn[nH]c1Oc1ccc(-c2ccc(Br)cc2)cc1 [Example I-154, 5-((4′-Bromo-[1,1′-biphenyl]-4-yl)oxy)-1H-1,2,3-triazole-4-carboxylic acid] | 
25 |  | 110 (≈ 34.1 µg/mL) | 99.4 (≈ 30.9 µg/mL) | 8.95 | 3.24 | 2.43 | 98.8 | 0.089 | > 5000 | COc1ccc(-c2cccc(Oc3[nH]nnc3C(=O)O)c2)cc1 [Example I-250, 5-((4′-Methoxy-[1,1′-biphenyl]-3-yl)oxy)-1H-1,2,3-triazole-4-carboxylic acid] | 
